Assay results reported in US12258327B2, “5-membered heteroaryl-containing aminopyridine compounds as EGFR inhibitors” (YUHAN CORPORATION, priority 2021, dated 2025).
Where two headings read alike, the source gives them in different places.

How the values were obtained:
EGFR L858R/C797S = EGFR L858R/C797S (Homo sapiens, UniProt P00533, C797S/L858R); experiment: Biochemical EGFR kinase assay (Lance Ultra TR-FRET), double mutant L858R/C797S
Procedure, shortened: (§1)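 Kinase activity is measured by TR-FRET phosphopeptide detection. Compounds span 0.003 μM to 10 μM; the 1 h reaction at room temperature is quenched with EDTA, then labelled antibody (2 nM) is incubated 60 min before reading.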

EGFR del19/T790M/C797S = EGFR del19/T790M/C797S (Homo sapiens, UniProt P00533, C797S/DEL746-750/T790M); experiment: Biochemical EGFR kinase assay (Lance Ultra TR-FRET), triple mutant del19/T790M/C797S
Procedure, shortened: as §1

EGFR wildtype (WT) = EGFR wildtype (WT) (Homo sapiens, UniProt P00533); experiment: Biochemical EGFR kinase assay (Lance Ultra TR-FRET), wildtype
EGFR wildtype (WT), sequence (P00533 25-1210): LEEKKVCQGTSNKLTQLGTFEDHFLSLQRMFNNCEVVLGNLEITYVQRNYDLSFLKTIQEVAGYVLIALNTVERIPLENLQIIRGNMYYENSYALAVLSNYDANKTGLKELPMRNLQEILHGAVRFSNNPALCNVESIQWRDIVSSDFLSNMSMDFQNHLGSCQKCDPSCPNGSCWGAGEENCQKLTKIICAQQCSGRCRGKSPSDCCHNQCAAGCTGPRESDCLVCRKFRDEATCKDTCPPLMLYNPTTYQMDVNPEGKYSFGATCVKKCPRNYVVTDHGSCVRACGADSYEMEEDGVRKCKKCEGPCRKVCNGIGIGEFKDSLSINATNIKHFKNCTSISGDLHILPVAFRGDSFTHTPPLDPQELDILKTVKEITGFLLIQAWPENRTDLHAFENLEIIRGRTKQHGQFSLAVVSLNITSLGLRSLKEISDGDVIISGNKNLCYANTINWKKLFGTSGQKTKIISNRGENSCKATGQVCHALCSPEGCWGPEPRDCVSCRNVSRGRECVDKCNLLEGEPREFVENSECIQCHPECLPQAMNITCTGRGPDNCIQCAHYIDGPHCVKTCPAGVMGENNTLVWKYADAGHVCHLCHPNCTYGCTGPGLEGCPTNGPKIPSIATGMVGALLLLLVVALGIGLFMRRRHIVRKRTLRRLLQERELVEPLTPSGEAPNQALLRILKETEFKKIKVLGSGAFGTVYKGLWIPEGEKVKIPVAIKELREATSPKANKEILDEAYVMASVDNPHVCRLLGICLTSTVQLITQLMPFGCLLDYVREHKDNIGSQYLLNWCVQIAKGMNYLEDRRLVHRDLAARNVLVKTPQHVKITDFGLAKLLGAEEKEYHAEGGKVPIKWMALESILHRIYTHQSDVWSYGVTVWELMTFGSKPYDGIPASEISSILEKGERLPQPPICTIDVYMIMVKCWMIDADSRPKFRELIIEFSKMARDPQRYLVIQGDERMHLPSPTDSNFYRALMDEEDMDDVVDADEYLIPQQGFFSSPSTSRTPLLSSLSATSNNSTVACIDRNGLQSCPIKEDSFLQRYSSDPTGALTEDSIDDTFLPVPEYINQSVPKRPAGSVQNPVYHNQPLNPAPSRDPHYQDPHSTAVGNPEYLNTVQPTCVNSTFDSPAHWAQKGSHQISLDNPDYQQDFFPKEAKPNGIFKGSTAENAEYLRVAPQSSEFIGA
Procedure, shortened: as §1

EGFR L858R/T790M/C797S = EGFR L858R/T790M/C797S (Homo sapiens, UniProt P00533, C797S/L858R/T790M); experiment: Biochemical EGFR kinase assay (Lance Ultra TR-FRET), triple mutant L858R/T790M/C797S
EGFR L858R/T790M/C797S, sequence (P00533 25-1210 T790M/C797S/L858R): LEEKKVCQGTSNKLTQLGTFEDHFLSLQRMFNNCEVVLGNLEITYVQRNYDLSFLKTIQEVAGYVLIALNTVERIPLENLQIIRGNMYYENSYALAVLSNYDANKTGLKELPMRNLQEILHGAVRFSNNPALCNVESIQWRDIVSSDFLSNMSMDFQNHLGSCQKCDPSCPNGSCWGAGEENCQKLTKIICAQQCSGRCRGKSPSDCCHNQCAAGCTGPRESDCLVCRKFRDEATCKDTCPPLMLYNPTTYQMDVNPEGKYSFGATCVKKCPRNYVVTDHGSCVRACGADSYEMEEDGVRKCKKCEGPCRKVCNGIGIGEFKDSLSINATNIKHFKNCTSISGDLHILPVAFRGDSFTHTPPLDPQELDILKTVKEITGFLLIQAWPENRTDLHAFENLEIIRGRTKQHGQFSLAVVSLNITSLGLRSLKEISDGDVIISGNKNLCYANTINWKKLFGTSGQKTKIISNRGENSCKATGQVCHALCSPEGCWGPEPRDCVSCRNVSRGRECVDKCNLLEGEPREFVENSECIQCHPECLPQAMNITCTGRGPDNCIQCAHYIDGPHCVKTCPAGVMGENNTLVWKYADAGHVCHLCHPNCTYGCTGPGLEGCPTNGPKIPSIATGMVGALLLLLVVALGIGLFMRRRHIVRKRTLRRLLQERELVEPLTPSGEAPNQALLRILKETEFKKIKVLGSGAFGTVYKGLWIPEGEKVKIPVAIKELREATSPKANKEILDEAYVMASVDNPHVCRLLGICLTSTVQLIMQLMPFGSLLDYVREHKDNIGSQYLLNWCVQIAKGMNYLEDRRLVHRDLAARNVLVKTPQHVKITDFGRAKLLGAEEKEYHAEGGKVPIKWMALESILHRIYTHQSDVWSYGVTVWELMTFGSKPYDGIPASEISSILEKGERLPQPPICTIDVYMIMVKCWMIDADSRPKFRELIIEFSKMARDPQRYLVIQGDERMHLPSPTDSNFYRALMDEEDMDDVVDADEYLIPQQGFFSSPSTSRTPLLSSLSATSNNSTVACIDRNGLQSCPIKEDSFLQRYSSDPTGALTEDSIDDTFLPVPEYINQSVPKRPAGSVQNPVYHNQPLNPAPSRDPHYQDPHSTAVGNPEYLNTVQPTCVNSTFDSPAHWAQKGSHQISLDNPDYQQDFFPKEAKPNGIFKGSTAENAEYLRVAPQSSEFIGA
Procedure, shortened: as §1

EGFR del19/C797S = EGFR del19/C797S (Homo sapiens, UniProt P00533, C797S/DEL746-750); experiment: Biochemical EGFR kinase assay (Lance Ultra TR-FRET), double mutant del19/C797S
EGFR del19/C797S, sequence (P00533 with tags, fused parts or gaps DEL746-750/C797S): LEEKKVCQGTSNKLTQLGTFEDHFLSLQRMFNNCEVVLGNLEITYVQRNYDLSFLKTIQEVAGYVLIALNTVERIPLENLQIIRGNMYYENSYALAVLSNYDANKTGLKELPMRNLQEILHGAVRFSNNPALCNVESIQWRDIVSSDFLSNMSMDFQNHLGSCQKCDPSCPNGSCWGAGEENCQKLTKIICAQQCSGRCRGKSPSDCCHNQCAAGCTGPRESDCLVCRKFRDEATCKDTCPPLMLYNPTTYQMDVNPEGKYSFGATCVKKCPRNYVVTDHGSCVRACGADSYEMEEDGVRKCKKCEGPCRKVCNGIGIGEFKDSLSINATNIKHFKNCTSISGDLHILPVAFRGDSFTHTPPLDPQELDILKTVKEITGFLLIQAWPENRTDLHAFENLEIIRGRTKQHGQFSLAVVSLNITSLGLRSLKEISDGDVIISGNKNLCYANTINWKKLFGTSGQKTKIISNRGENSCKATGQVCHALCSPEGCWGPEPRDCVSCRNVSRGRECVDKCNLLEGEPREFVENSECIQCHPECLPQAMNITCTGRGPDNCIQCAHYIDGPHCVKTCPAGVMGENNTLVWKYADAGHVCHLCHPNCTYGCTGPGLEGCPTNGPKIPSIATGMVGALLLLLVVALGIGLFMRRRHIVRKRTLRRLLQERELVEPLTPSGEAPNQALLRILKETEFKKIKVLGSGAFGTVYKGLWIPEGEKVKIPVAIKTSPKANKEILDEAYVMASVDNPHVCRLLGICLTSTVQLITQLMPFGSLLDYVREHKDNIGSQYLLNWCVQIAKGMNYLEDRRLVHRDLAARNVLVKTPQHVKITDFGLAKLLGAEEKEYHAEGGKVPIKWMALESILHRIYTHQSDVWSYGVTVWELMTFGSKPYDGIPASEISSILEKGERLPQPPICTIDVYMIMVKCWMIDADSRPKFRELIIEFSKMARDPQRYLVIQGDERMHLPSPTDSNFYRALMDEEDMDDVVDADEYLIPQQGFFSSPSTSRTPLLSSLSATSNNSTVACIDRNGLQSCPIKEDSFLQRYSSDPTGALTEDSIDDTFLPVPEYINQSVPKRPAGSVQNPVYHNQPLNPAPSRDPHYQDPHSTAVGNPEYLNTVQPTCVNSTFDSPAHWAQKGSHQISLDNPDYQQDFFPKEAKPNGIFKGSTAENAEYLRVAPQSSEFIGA
Procedure, shortened: as §1

[1] = Km ATP, read-out: IC50 L858R/C797S (nM) Km ATP
[2] = Km ATP, read-out: IC50 del19/T790M/C797S (nM) Km ATP
[3] = Km ATP, read-out: IC50 WT (nM) Km ATP
[4] = Km ATP, read-out: IC50 L858R/T790M/C797S (nM) Km ATP
[5] = Km ATP, read-out: IC50 del19/C797S (nM) Km ATP
[6] = IC50 L858R/C797S (nM) 100 μM ATP, 100 μM ATP
[7] = IC50 del19/T790M/C797S (nM) 100 μM ATP, 100 μM ATP
[8] = IC50 WT (nM) 100 μM ATP, 100 μM ATP
[9] = IC50 L858R/T790M/C797S (nM) 100 μM ATP, 100 μM ATP
[10] = IC50 del19/C797S (nM) 100 μM ATP, 100 μM ATP

EGFR L858R/C797S, sequence (P00533 25-1210 C797S/L858R): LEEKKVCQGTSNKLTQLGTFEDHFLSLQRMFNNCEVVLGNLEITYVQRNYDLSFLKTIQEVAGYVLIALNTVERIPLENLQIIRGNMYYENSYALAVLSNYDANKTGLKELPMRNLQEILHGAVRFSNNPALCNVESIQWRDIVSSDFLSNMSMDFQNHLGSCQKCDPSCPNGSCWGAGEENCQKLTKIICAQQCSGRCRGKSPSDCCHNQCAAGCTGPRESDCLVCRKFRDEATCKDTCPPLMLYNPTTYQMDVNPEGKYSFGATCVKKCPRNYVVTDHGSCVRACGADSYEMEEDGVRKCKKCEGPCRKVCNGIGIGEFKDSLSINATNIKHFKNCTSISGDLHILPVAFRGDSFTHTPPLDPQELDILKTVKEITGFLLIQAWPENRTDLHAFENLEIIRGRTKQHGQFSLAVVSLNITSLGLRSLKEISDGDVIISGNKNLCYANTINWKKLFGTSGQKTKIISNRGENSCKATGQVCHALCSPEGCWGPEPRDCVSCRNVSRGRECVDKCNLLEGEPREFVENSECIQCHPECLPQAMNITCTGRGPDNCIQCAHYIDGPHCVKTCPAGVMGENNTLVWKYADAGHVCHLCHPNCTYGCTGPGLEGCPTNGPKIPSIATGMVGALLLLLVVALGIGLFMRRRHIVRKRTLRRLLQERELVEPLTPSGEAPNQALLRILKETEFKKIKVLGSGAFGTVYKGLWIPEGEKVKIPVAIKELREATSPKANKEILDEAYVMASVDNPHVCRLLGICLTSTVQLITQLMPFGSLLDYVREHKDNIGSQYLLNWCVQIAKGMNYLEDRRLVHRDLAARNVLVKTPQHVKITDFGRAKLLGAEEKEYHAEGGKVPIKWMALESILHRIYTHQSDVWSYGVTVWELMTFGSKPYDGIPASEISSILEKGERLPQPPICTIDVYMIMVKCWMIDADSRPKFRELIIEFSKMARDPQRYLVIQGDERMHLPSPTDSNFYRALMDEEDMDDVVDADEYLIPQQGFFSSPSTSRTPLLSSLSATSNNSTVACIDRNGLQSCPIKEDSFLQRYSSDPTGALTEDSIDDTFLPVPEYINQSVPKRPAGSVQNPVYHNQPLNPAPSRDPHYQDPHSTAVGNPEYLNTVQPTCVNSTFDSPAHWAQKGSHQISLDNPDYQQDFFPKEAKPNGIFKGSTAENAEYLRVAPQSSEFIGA

Row | Compound | IC50 (EGFR L858R/C797S; [1]) [nM] | IC50 (EGFR del19/T790M/C797S; [2]) [nM] | IC50 (EGFR wildtype (WT); [3]) [nM] | IC50 (EGFR L858R/T790M/C797S; [4]) [nM] | IC50 (EGFR del19/C797S; [5]) [nM] | IC50 (EGFR L858R/C797S; [6]) [nM] | IC50 (EGFR del19/T790M/C797S; [7]) [nM] | IC50 (EGFR wildtype (WT); [8]) [nM] | IC50 (EGFR L858R/T790M/C797S; [9]) [nM] | IC50 (EGFR del19/C797S; [10]) [nM]
1 | O=S(=O)(C1CC1)n1cc(-c2nccc(Nc3cc(NC4CCN(CC(F)F)CC4)c(-c4ccn(C(F)F)n4)cn3)n2)cn1 [Example 219, N^2-(2-(1-(Cyclopropylsulfonyl)-1H-pyrazol-4-yl)pyrimidin-4-yl)-N^4-(1-(2,2-difluoroethyl)piperidin-4-yl)-5-(1-(difluoromethyl)-1H-pyrazol-3-yl)pyridine-2,4-diamine] | 21.4 | 0.8 | 8630 | 0.5 | 134 | – | – | – | – | –
2 | C[C@]1(F)CC[C@@H](Nc2cc(Nc3ccnc(-c4cnn(S(=O)(=O)C5CC5)c4)n3)ncc2-c2ccn(C(F)F)n2)CC1 [Example 220, N^2-(2-(1-(Cyclopropylsulfonyl)-1H-pyrazol-4-yl)pyrimidin-4-yl)-5-(1-(difluoromethyl)-1H-pyrazol-3-yl)-N^4-((1s,4s)-4-fluoro-4-methylcyclohexyl)pyridine-2,4-diamine] | 463 | 16.6 | 720 | 11.4 | 539 | – | – | – | – | –
3 | Cn1ccc(-c2cnc(Nc3ccnc(-c4cnn(S(=O)(=O)C5CC5)c4)n3)cc2N[C@H]2CC[C@](O)(CO)CC2)n1 [Example 221, (1s,4s)-4-((2-((2-(1-(Cyclopropylsulfonyl)-1H-pyrazol-4-yl)pyrimidin-4-yl)amino)-5-(1-methyl-1H-pyrazol-3-yl)pyridin-4-yl)amino)-1-(hydroxymethyl)cyclohexan-1-ol] | 1 | 0.3 | 4.9 | 0.2 | 0.4 | 4.9 | 0.3 | 1510 | 0.2 | 0.5
4 | Cn1ccc(-c2cnc(Nc3ccnc(-c4cnn(S(=O)(=O)C5CC5)c4)n3)cc2NC2CCC(F)(CO)CC2)n1 (stereo not drawn) [Example 222, (4-((2-((2-(1-(Cyclopropylsulfonyl)-1H-pyrazol-4-yl)pyrimidin-4-yl)amino)-5-(1-methyl-1H-pyrazol-3-yl)pyridin-4-yl)amino)-1-fluorocyclohexyl)methanol] | 3.3 | 0.3 | 14.9 | 0.1 | 1.1 | 18.8 | 0.2 | > 10000 | 0.2 | 0.9
5 | Cn1ccc(-c2cnc(Nc3ccnc(-c4cnn(S(=O)(=O)C5CC5)c4)n3)cc2NC[C@H]2C[C@H](CO)C2)n1 [Example 223, ((1r,3r)-3-(((2-((2-(1-(Cyclopropylsulfonyl)-1H-pyrazol-4-yl)pyrimidin-4-yl)amino)-5-(1-methyl-1H-pyrazol-3-yl)pyridin-4-yl)amino)methyl)cyclobutyl)methanol] | 0.7 | 0.2 | 3.2 | 0.1 | 0.3 | 5.9 | 0.2 | 3020 | 0.2 | 0.6
6 | Cn1ccc(-c2cnc(Nc3ccnc(-c4cnn(S(=O)(=O)C5CC5)c4)n3)cc2NC2CCCC(NCC(F)F)C2)n1 (stereo not drawn) [Example 224, N^2-(2-(1-(Cyclopropylsulfonyl)-1H-pyrazol-4-yl)pyrimidin-4-yl)-N^4-(3-((2,2-difluoroethyl)amino)cyclohexyl)-5-(1-methyl-1H-pyrazol-3-yl)pyridine-2,4-diamine] | 6.6 | 0.5 | 37.8 | 0.3 | 3.3 | 132 | 0.7 | > 10000 | 0.7 | 4.7
7 | Cn1ccc(-c2cnc(Nc3ccnc(-c4cnn(S(=O)(=O)C5CC5)c4)n3)cc2NC2CCCC(NCCF)C2)n1 (stereo not drawn) [Example 225, N^2-(2-(1-(Cyclopropylsulfonyl)-1H-pyrazol-4-yl)pyrimidin-4-yl)-N^4-(3-((2-fluoroethyl)amino)cyclohexyl)-5-(1-methyl-1H-pyrazol-3-yl)pyridine-2,4-diamine] | 5 | 0.3 | 27.4 | 0.2 | 2.9 | 15.3 | 0.2 | > 10000 | 0.6 | 6.7
8 | CN(C)C[C@H]1CC[C@@H](Nc2cc(Nc3ccnc(-c4cnn(S(=O)(=O)C5CC5)c4)n3)ncc2-c2ccn(C)n2)CC1 [Example 226, N^2-(2-(1-(Cyclopropylsulfonyl)-1H-pyrazol-4-yl)pyrimidin-4-yl)-N^4-((1s,4s)-4-((dimethylamino)methyl)cyclohexyl)-5-(1-methyl-1H-pyrazol-3-yl)pyridine-2,4-diamine] | 0.1 | 0.1 | 0.2 | 0.1 | 0.1 | – | 0.1 | 96.9 | 0.1 | 0.2
9 | Cn1ccc(-c2cnc(Nc3ccnc(-c4cnn(S(=O)(=O)C5CC5)c4)n3)cc2N[C@H]2CC[C@H](CO)OC2)n1 [Example 227, ((2R,5S)-5-((2-((2-(1-(Cyclopropylsulfonyl)-1H-pyrazol-4-yl)pyrimidin-4-yl)amino)-5-(1-methyl-1H-pyrazol-3-yl)pyridin-4-yl)amino)tetrahydro-2H-pyran-2-yl)methanol] | – | – | – | – | – | 962 | 2.1 | > 10000 | 6.7 | 44.4
10 | Cn1ccc(-c2cnc(Nc3ccnc(-c4cnn(S(=O)(=O)C5CC5)c4)n3)cc2NCC2(CO)COC2)n1 [Example 228, (3-(((2-((2-(1-(Cyclopropylsulfonyl)-1H-pyrazol-4-yl)pyrimidin-4-yl)amino)-5-(1-methyl-1H-pyrazol-3-yl)pyridin-4-yl)amino)methyl)oxetan-3-yl)methanol] | 0.9 | 0.1 | 3.3 | 0.1 | 0.6 | 24.5 | 0.2 | 2360 | 0.2 | 0.8
11 | Cn1ccc(-c2cnc(Nc3ccnc(-c4cnn(S(=O)(=O)C5CC5)c4)n3)cc2N[C@H]2CC[C@H](CO)CC2)n1 [Example 229, ((1r,4r)-4-((2-((2-(1-(Cyclopropylsulfonyl)-1H-pyrazol-4-yl)pyrimidin-4-yl)amino)-5-(1-methyl-1H-pyrazol-3-yl)pyridin-4-yl)amino)cyclohexyl)methanol] | 1.4 | – | 10 | 0.1 | 0.4 | 43.9 | 0.1 | > 10000 | 1.4 | 0.8
12 | CN(C)C[C@]1(O)CC[C@@H](Nc2cc(Nc3ccnc(-c4cnn(S(=O)(=O)C5CC5)c4)n3)ncc2-c2ccn(C)n2)CC1 [Example 230, (1s,4s)-4-((2-((2-(1-(Cyclopropylsulfonyl)-1H-pyrazol-4-yl)pyrimidin-4-yl)amino)-5-(1-methyl-1H-pyrazol-3-yl)pyridin-4-yl)amino)-1-((dimethylamino)methyl)cyclohexan-1-ol] | 3.3 | 0.2 | 9.4 | 0.2 | 4.8 | 33.8 | 0.5 | 4670 | 0.5 | 6
13 | Cn1ccc(-c2cnc(Nc3ccnc(-c4cnn(S(=O)(=O)C5CC5)c4)n3)cc2N[C@H]2CC[C@](O)(C(F)F)CC2)n1 [Example 231, (1s,4s)-4-((2-((2-(1-(Cyclopropylsulfonyl)-1H-pyrazol-4-yl)pyrimidin-4-yl)amino)-5-(1-methyl-1H-pyrazol-3-yl)pyridin-4-yl)amino)-1-(difluoromethyl)cyclohexan-1-ol] | 3.1 | 0.3 | 37.3 | 0.3 | 2.4 | 11.5 | 0.5 | > 10000 | 0.7 | 2
14 | CN(C)C(=O)[C@H]1CC[C@@H](Nc2cc(Nc3ccnc(-c4cnn(S(=O)(=O)C5CC5)c4)n3)ncc2-c2ccn(C)n2)CC1 [Example 232, (1s,4s)-4-((2-((2-(1-(Cyclopropylsulfonyl)-1H-pyrazol-4-yl)pyrimidin-4-yl)amino)-5-(1-methyl-1H-pyrazol-3-yl)pyridin-4-yl)amino)-N,N-dimethylcyclohexane-1-carboxamide] | 0.4 | 0.6 | – | 0.3 | 0.5 | 1.6 | 0.4 | 247 | 0.4 | 1.1
15 | Cn1ccc(-c2cnc(Nc3ccnc(-c4cnn(S(=O)(=O)C5CC5)c4)n3)cc2N[C@H]2CCC[C@H](CO)C2)n1 [Example 233, ((1S,3S)-3-((2-((2-(1-(Cyclopropylsulfonyl)-1H-pyrazol-4-yl)pyrimidin-4-yl)amino)-5-(1-methyl-1H-pyrazol-3-yl)pyridin-4-yl)amino)cyclohexyl)methanol] | 0.9 | 0.4 | 3.6 | 0.2 | 0.5 | 4.2 | 0.5 | 3140 | 0.4 | 1.3
